pIC50: −log10 of the molar value. *1 amine or outer side, *2 acyl side, *3 side chain or, on linkers, in order; H or OH if unused. Where a SMILES comes first, the peptide text is derived from it. Bridges are numbered along the chain shown (N, C = ends). Side-chain parts run from the residue outwards. [ ]: non-standard residue; d: D form. The star is where a group is joined. X18 = O=C(O)CCCCCCCCCCCCCCCCC(=O)N[C@@H](CCC(=O)NCCOCCOCCOCCOCCOCOCCOCCOCCOCCOCCOCCOCCC(=O)*)C(=O)O; PEG12 = NCCOCCOCCOCCOCCOCCOCCOCCOCCOCCOCCOCCOCCC(=O)O; Trp(7-Me) = Cc1cccc2c(C[C@H](N)C(=O)O)c[nH]c12; C20 diacid = O=C(O)CCCCCCCCCCCCCCCCCCC(=O)*; C18 diacid = O=C(O)CCCCCCCCCCCCCCCCC(=O)*; γGlu = O=C(O)[C@H](CCC(=O)[*:2])N[*:1]; 2Nal = N[C@@H](Cc1ccc2ccccc2c1)C(=O)O; AEF = NCCOc1ccc(C[C@H](N)C(=O)O)cc1; 3Pal = N[C@@H](Cc1cccnc1)C(=O)O; Pen = CC(C)(S)[C@H](N)C(=O)O; Thp = NC1(C(=O)O)CCOCC1; Sar = CNCC(=O)O

In one assay the target is T1, IL-23R (Homo sapiens, UniProt Q5VWK5).
T1 construct: HEK293 cells containing IL-23R, IL-12Rβ1 and a firefly luciferase reporter gene driven by a STAT-inducible promoter (Promega); host or cells: HEK293
T1 sequence (Q5VWK5 24-629): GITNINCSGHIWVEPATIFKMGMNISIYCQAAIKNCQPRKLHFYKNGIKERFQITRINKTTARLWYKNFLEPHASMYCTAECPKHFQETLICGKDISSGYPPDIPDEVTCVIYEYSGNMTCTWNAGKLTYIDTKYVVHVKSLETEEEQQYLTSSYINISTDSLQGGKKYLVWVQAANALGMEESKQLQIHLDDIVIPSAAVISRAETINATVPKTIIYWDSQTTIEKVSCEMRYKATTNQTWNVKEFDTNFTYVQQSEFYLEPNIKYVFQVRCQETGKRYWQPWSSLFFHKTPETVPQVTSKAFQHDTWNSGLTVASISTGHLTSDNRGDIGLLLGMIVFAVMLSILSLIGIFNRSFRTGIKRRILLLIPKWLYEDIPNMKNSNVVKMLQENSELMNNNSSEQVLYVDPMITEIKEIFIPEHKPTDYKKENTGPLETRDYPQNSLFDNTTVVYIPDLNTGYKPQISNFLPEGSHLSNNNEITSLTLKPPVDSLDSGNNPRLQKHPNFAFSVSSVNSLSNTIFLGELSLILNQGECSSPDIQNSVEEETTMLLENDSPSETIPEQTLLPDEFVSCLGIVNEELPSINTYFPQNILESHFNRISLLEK
Briefly: IL23R Reporter Assay. The assay is classed as cell-based. To be noted: HEK293 cells containing IL-23R, IL-12Rβ1 and STAT-inducible firefly luciferase reporter; 10 ng/mL IL-23 (EC90); 5 h. In a few lines: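 IC50 values were fitted with a 4-parameter Hill equation to luciferase signal, scaled between IL-23-only wells (0% inhibition) and 30 μM reference inhibitor (100%). The readout was a STAT-inducible reporter in IL-23R/IL-12Rβ1 HEK293 cells, stimulated with added 10 ng/mL IL-23 (EC90) for 5 h at 37° C and developed with BioGlo.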

In assay [1] the test system is IL-23-stimulated phosphorylated STAT3 in peripheral blood mononuclear cells (PBMCs). Briefly: PBMC pSTAT3 Assay. In kind it is cell-based. The following applies: PBMCs from healthy donors; 30 min preincubation with peptide; IL-23 5 ng/mL for 30 min; phospho-STAT3 by MSD. In a few lines: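 Phospho-STAT3 quantified by Meso Scale assay in lysates of PBMCs exposed to IL-23 (5 ng/mL, 30 min, 37 °C) after 30 min peptide pretreatment. Cells were cryopreserved donor PBMCs activated 4 days with anti-CD3 plus IL-1β (100 ng/mL) and starved ~4 h; IC50 reported.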

As to `CC(=O)NCCCC[C@@H]1NC(=O)[C@H](Cc2c[nH]c3c(C)cccc23)NC(=O)[C@H]([C@@H](C)O)NC(=O)[C@H](CCCCNC(=O)CCOCCOCCOCCOCCOCCOCCOCOCCOCCOCCOCCOCCNC(=O)CC[C@H](NC(=O)CCCCCCCCCCCCCCCCC(=O)O)C(=O)O)NC(=O)[C@@H](NC(C)=O)C(C)(C)SSC(C)(C)[C@@H](C(=O)N[C@@H](Cc2ccc(OCCN)cc2)C(=O)N[C@@H](Cc2ccc3ccccc3c2)C(=O)NC2(C(=O)N[C@@H](CCC(=O)O)C(=O)N[C@@H](CC(N)=O)C(=O)N[C@@H](Cc3cccnc3)C(=O)N(C)CC(N)=O)CCOCC2)NC1=O` [compound 97, MeCO-Pen(3)-K(PEG12gEC18OH)-T-7MeW-K(Ac)-Pen(3)-AEF-2Nal-THP-E-N-3Pya-Sar-CONH2] (Ac-[Pen]K(X18)T[Trp(7-Me)]K(Ac)[Pen][AEF][2Nal][Thp]EN[3Pal][Sar]-NH2; disulfide 1-6), the pIC50 against IL-23R was above 7.30; in assay [1] it was above 9.30.
As to `CC(=O)NCCCC[C@@H]1NC(=O)[C@H](Cc2c[nH]c3c(C)cccc23)NC(=O)[C@H]([C@@H](C)O)NC(=O)[C@H](CC(N)=O)NC(=O)[C@@H](NC(=O)[C@@H](CCCCNC(=O)CCOCCOCCOCCOCCOCCOCCOCCOCCOCCOCCOCCOCCNC(=O)CC[C@H](NC(=O)CCCCCCCCCCCCCCCCC(=O)O)C(=O)O)NC(C)=O)C(C)(C)SSC(C)(C)[C@@H](C(=O)N[C@@H](Cc2ccc(OCCN)cc2)C(=O)N[C@@H](Cc2ccc3ccccc3c2)C(=O)NC2(C(=O)N[C@@H](CCCCNC(C)=O)C(=O)N[C@@H](CC(N)=O)C(=O)N[C@@H](Cc3cccnc3)C(=O)N(C)CC(N)=O)CCOCC2)NC1=O` [compound 98, MeCO-k(PEG12gEC18OH)-Pen(3)-N-T-7MeW-K(Ac)-Pen(3)-AEF-2Nal-THP-K(Ac)-N-3Pya-Sar-CONH2] (Ac-[dK]([PEG12-γGlu-C18 diacid])[Pen]NT[Trp(7-Me)]K(Ac)[Pen][AEF][2Nal][Thp]K(Ac)N[3Pal][Sar]-NH2; disulfide 2-7), the pIC50 against IL-23R was above 7.30; in assay [1], above 9.30.
Take `CC(=O)NCCCC[C@@H]1NC(=O)[C@H](Cc2c[nH]c3c(C)cccc23)NC(=O)[C@H]([C@@H](C)O)NC(=O)[C@H](CCCCNC(=O)CCOCCOCCOCCOCCOCCOCCOCCOCCOCCOCCOCCOCCNC(=O)CC[C@H](NC(=O)CCCCCCCCCCCCCCCCC(=O)O)C(=O)O)NC(=O)[C@@H](NC(=O)[C@@H](CCCNC(=N)N)NC(C)=O)C(C)(C)SSC(C)(C)[C@@H](C(=O)N[C@@H](Cc2ccc(OCCN)cc2)C(=O)N[C@@H](Cc2ccc3ccccc3c2)C(=O)NC2(C(=O)N[C@@H](CCC(=O)O)C(=O)N[C@@H](CC(N)=O)C(=O)N[C@@H](Cc3cccnc3)C(=O)N(C)CC(N)=O)CCOCC2)NC1=O` [compound 99, MeCO-r-Pen(3)-K(PEG12gEC20OH)-T-7MeW-K(Ac)-Pen(3)-AEF-2Nal-THP-E-N-3Pya-Sar-CONH2] (Ac-[dR][Pen]K([PEG12-γGlu-C18 diacid])T[Trp(7-Me)]K(Ac)[Pen][AEF][2Nal][Thp]EN[3Pal][Sar]-NH2; disulfide 2-7): the negative-log IC50 (pIC50) on IL-23R is above 7.30; in assay [1], above 9.30.
The like results for `CC(=O)NCCCC[C@@H]1NC(=O)[C@H](CC2CNc3c(C)cccc32)NC(=O)[C@H]([C@@H](C)O)NC(=O)[C@H](CC(N)=O)NC(=O)[C@@H](NC(C)=O)C(C)(C)SSC(C)(C)[C@@H](C(=O)N[C@@H](Cc2ccc(OCCN)cc2)C(=O)N[C@@H](Cc2ccc3ccccc3c2)C(=O)NC2(C(=O)N[C@@H](CCCCNC(=O)CCOCCOCCOCCOCCOCCOCCOCCOCCOCCOCCOCCOCCNCCC[C@H](NC(=O)CCCCCCCCCCCCCCCCC(=O)O)C(=O)O)C(=O)N[C@@H](C)C(=O)N[C@@H](Cc3ccccc3)C(=O)N(C)CC(N)=O)CCOCC2)NC1=O` (stereo partly drawn) [compound 100, MeCO-Pen(3)-N-T-7MeW-K(Ac)-Pen(3)-AEF-2Nal-THP-K(PEG12gEC18OH)-N-3Pya-Sar-CONH2] were, in that order, above 7.30 and above 9.30.
For `CC(=O)NCCCC[C@@H]1NC(=O)[C@H](Cc2c[nH]c3c(C)cccc23)NC(=O)[C@H]([C@@H](C)O)NC(=O)[C@H](CC(N)=O)NC(=O)[C@@H](NC(C)=O)C(C)(C)SSC(C)(C)[C@@H](C(=O)N[C@@H](Cc2ccc(OCCN)cc2)C(=O)N[C@@H](Cc2ccc3ccccc3c2)C(=O)NC2(C(=O)N[C@@H](CCCCNC(C)=O)C(=O)N[C@@H](CC(N)=O)C(=O)N[C@@H](Cc3cccnc3)C(=O)N(C)CC(=O)N[C@@H](CCCCNC(=O)CCOCCOCCOCCOCCOCCOCCOCCOCCOCCOCCOCCOCCNC(=O)CC[C@H](NC(=O)CCCCCCCCCCCCCCCCCCC(=O)O)C(=O)O)C(N)=O)CCOCC2)NC1=O` [compound 101, MeCO-Pen(3)-N-T-7MeW-K(Ac)-Pen(3)-AEF-2Nal-THP-K(Ac)-N-3Pya-Sar-K(PEG12gEC20OH)-CONH2], the results for the negative-log IC50 (pIC50) (against IL-23R; in assay [1]) were above 7.30 and above 9.30, respectively.
For the molecule `CC(=O)NCCCC[C@@H]1NC(=O)[C@H](Cc2c[nH]c3c(C)cccc23)NC(=O)[C@H]([C@@H](C)O)NC(=O)[C@H](CC(N)=O)NC(=O)[C@@H](NC(C)=O)C(C)(C)SSC(C)(C)[C@@H](C(=O)N[C@@H](Cc2ccc(OCCN)cc2)C(=O)N[C@@H](Cc2ccc3ccccc3c2)C(=O)NC2(C(=O)N[C@@H](CCCCNC(C)=O)C(=O)N[C@@H](CC(N)=O)C(=O)N[C@@H](Cc3cccnc3)C(=O)N(C)CC(=O)N[C@@H](CCCCNC(=O)CCOCCOCCOCCOCCOCCOCCOCCOCCOCCOCCOCCOCCNC(=O)CC[C@H](NC(=O)CCCCCCCCCCCCCCCCC(=O)O)C(=O)O)C(N)=O)CCOCC2)NC1=O` [compound 102, MeCO-Pen(3)-N-T-7MeW-K(Ac)-Pen(3)-AEF-2Nal-THP-K(Ac)-N-3Pya-Sar-K(PEG12gEC18OH)-CONH2], the pIC50 was above 7.30 on IL-23R and above 9.30 in assay [1].
Turning to `CC(=O)NCCCC[C@@H]1NC(=O)[C@H](Cc2c[nH]c3c(C)cccc23)NC(=O)[C@H]([C@@H](C)O)NC(=O)[C@H](CC(N)=O)NC(=O)[C@@H](NC(C)=O)C(C)(C)SSC(C)(C)[C@@H](C(=O)N[C@@H](Cc2ccc(OCCN)cc2)C(=O)N[C@@H](Cc2ccc3ccccc3c2)C(=O)NC2(C(=O)N[C@@H](CCC(=O)O)C(=O)N[C@@H](CC(N)=O)C(=O)N[C@@H](Cc3cccnc3)C(=O)N(C)CC(=O)N[C@@H](CCCCNC(=O)CCOCCOCCOCCOCCOCCOCCOCCOCCOCCOCCOCCOCCNC(=O)CC[C@H](NC(=O)CCCCCCCCCCCCCCCCCCC(=O)O)C(=O)O)C(N)=O)CCOCC2)NC1=O` [compound 103, MeCO-Pen(3)-N-T-7MeW-K(Ac)-Pen(3)-AEF-2Nal-THP-E-N-3Pya-Sar-K(PEG12gEC20OH)-CONH2], the results for the pIC50 (on IL-23R; in assay [1]) were above 7.30 and above 9.30, respectively.
On to `CC(=O)NCCCC[C@@H]1NC(=O)[C@H](Cc2c[nH]c3c(C)cccc23)NC(=O)[C@H]([C@@H](C)O)NC(=O)[C@H](CC(N)=O)NC(=O)[C@@H](NC(=O)[C@@H](CCCCNC(=O)CCOCCOCCOCCOCCOCCOCCOCCOCCOCCOCCOCCOCCNC(=O)CC[C@H](NC(=O)CCCCCCCCCCCCCCCCCCC(=O)O)C(=O)O)NC(C)=O)C(C)(C)SSC(C)(C)[C@@H](C(=O)N[C@@H](Cc2ccc(OCCN)cc2)C(=O)N[C@@H](Cc2ccc3ccccc3c2)C(=O)NC2(C(=O)N[C@@H](CCCCNC(C)=O)C(=O)N[C@@H](CC(N)=O)C(=O)N[C@@H](Cc3cccnc3)C(=O)N(C)CC(N)=O)CCOCC2)NC1=O` [compound 104, MeCO-k(PEG12gEC20OH)-Pen(3)-N-T-7MeW-K(Ac)-Pen(3)-AEF-2Nal-THP-K(Ac)-N-3Pya-Ser-CONH2] (Ac-[dK]([PEG12-γGlu-C20 diacid])[Pen]NT[Trp(7-Me)]K(Ac)[Pen][AEF][2Nal][Thp]K(Ac)N[3Pal][Sar]-NH2; disulfide 2-7), for which the results for the pIC50 (against IL-23R; in assay [1]) were above 7.30 and above 9.30, respectively.

The pIC50 is the negative decadic logarithm of the IC50, by convention in mol/L. A higher pIC50 goes with a low IC50.

The record behind these values is patent publication US20260250320A1, “LIPIDATED PEPTIDE INHIBITORS OF INTERLEUKIN-23 RECEPTOR” (Janssen Pharmaceutica NV, priority 2023, published 2026).
